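All cell lines were grown in 96-well plates and treated with compound for 48 hours. GI50 is the concentration that inhibits growth by half.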 Active and inactive are the calls of the source. No stated cut-off is given here; in the data, active = GI50 up to about 1.1 µM and inactive = higher.
Key:
Experiment in all cases: inhibition of tumour cell growth, NCI panel, 48 h
A498 = system: A498
A549 = system: A549
ACHN = system: ACHN
CCRF-CEM = system: CCRF-CEM
COLO 205 = system: COLO 205
DLD-1 = system: DLD-1
DMS-114 = system: DMS-114
DMS-273 = system: DMS-273
EKVX = system: EKVX
HCT-116 = system: HCT-116
HCT-15 = system: HCT-15
HL-60 = system: HL-60
HOP-18 = system: HOP-18
HOP-62 = system: HOP-62
HOP-92 = system: HOP-92
K562 = system: K562
KM-20L2 = system: KM-20L2
LOX IMVI = system: LOX IMVI
LXFL 529 = system: LXFL 529
M14 = system: M14
MOLT-4 = system: MOLT-4
NCI-H23 = system: NCI-H23
NCI-H460 = system: NCI-H460
NCI-H522 = system: NCI-H522
OVCAR-8 = system: OVCAR-8
RPMI-8226 = system: RPMI-8226
RXF 393 = system: RXF 393
RXF 631 = system: RXF 631
SF-268 = system: SF-268
SF-539 = system: SF-539
SK-MEL-28 = system: SK-MEL-28
SK-MEL-5 = system: SK-MEL-5
SK-OV-3 = system: SK-OV-3
SN12C = system: SN12C
SW-620 = system: SW-620
TK-10 = system: TK-10
U-251 = system: U-251
UO-31 = system: UO-31
XF498 = system: XF498
786-0 = system: 786-0
CAKI-1 = system: CAKI-1
HCC 2998 = system: HCC 2998
HT-29 = system: HT-29
IGROV-1 = system: IGROV-1
KM12 = system: KM12
M19-MEL = system: M19-MEL
Malme-3M = system: Malme-3M
NCI-H226 = system: NCI-H226
OVCAR-3 = system: OVCAR-3
OVCAR-4 = system: OVCAR-4
OVCAR-5 = system: OVCAR-5
SF-295 = system: SF-295
SNB-19 = system: SNB-19
SNB-75 = system: SNB-75
SNB-78 = system: SNB-78
UACC-257 = system: UACC-257
UACC-62 = system: UACC-62
SK-MEL-2 = system: SK-MEL-2
SR = system: SR

Measured: GI50

CCc1nc2ccccc2c(=O)n1/N=C(\N=N\c1ccc(Cl)cc1)c1ccc(N(C)C)cc1
inactive: A498 38.3 µM | A549 42.7 µM | ACHN 28.7 µM | CCRF-CEM 27.6 µM | COLO 205 27.2 µM | DLD-1 30.1 µM | DMS-114 12.2 µM | DMS-273 32.3 µM | EKVX 28.1 µM | HCT-116 17.7 µM | HL-60 20.5 µM | HOP-18 25.5 µM | HOP-62 13.3 µM | HOP-92 13.7 µM | K562 16.7 µM | KM-20L2 23.6 µM | LOX IMVI 47.5 µM | LXFL 529 23.7 µM | M14 33.3 µM | MOLT-4 20.6 µM | NCI-H23 22.8 µM | NCI-H460 24.5 µM | NCI-H522 22.3 µM | OVCAR-8 34.9 µM | RPMI-8226 17.4 µM | RXF 393 56 µM | RXF 631 67.6 µM | SF-268 32.1 µM | SF-539 30.3 µM | SK-MEL-28 30.1 µM | SK-MEL-5 21.9 µM | SK-OV-3 27.7 µM | SN12C 27.7 µM | SW-620 45.1 µM | TK-10 61.9 µM | U-251 27.3 µM | UO-31 12.2 µM | XF498 25.1 µM
29.2 µM: HCT-15

c1ccc([P+](c2ccccc2)(c2ccccc2)C2Sc3ccccc3S2)cc1
inactive: 786-0 17.3 µM | A498 28.1 µM | A549 15 µM | ACHN 17.3 µM | CAKI-1 14.6 µM | CCRF-CEM 13.8 µM | COLO 205 16.7 µM | DLD-1 12.4 µM | DMS-114 12.7 µM | DMS-273 18.1 µM | EKVX 22.9 µM | HCC 2998 15.7 µM | HCT-116 12.8 µM | HL-60 5.96 µM | HOP-62 23.1 µM | HOP-92 > 100 µM | HT-29 23 µM | IGROV-1 > 100 µM | K562 16.9 µM | KM-20L2 23.4 µM | KM12 21.9 µM | LOX IMVI 11.4 µM | LXFL 529 12.6 µM | M14 15.3 µM | M19-MEL 15.1 µM | Malme-3M 13.9 µM | NCI-H226 12.5 µM | NCI-H23 10.5 µM | NCI-H460 23.3 µM | NCI-H522 14.9 µM | OVCAR-3 14.5 µM | OVCAR-4 18.9 µM | OVCAR-5 19.7 µM | OVCAR-8 15.1 µM | RPMI-8226 16.7 µM | RXF 393 14.9 µM | RXF 631 16 µM | SF-268 17.2 µM | SF-295 17.4 µM | SF-539 18.3 µM | SK-MEL-28 13.6 µM | SK-MEL-5 17.7 µM | SK-OV-3 28.8 µM | SN12C 16.6 µM | SNB-19 27.7 µM | SNB-75 17.8 µM | SNB-78 18.7 µM | SW-620 > 100 µM | TK-10 21 µM | U-251 16 µM | UACC-257 16.4 µM | UACC-62 13.8 µM | UO-31 16.1 µM | XF498 17.3 µM

CCCNC(=O)Nc1c([N+](=O)[O-])cc(C(F)(F)F)cc1[N+](=O)[O-]
inactive: 786-0 > 100 µM | A498 > 100 µM | A549 58.6 µM | ACHN 89.9 µM | CAKI-1 > 100 µM | CCRF-CEM > 100 µM | COLO 205 > 10 µM | DMS-273 > 100 µM | EKVX > 100 µM | HCT-116 25.3 µM | HL-60 24.5 µM | HOP-62 > 100 µM | HOP-92 > 100 µM | HT-29 37.4 µM | IGROV-1 > 100 µM | K562 47.1 µM | KM-20L2 26.2 µM | KM12 55.5 µM | LOX IMVI 62.8 µM | LXFL 529 55.2 µM | M14 86.3 µM | M19-MEL 42.8 µM | MOLT-4 > 100 µM | NCI-H226 > 100 µM | NCI-H23 43 µM | NCI-H460 42.1 µM | NCI-H522 31.3 µM | OVCAR-3 22.3 µM | OVCAR-4 20.3 µM | OVCAR-5 > 100 µM | OVCAR-8 74.3 µM | RPMI-8226 83.9 µM | RXF 393 11 µM | RXF 631 12.7 µM | SF-268 > 100 µM | SF-295 84.9 µM | SF-539 71.3 µM | SK-MEL-28 > 100 µM | SK-MEL-2 > 100 µM | SK-MEL-5 28.4 µM | SK-OV-3 > 100 µM | SNB-19 > 100 µM | SNB-75 34 µM | SNB-78 82.8 µM | SR 92.9 µM | SW-620 40.8 µM | TK-10 > 100 µM | U-251 > 100 µM | UACC-257 36.3 µM | UACC-62 37.3 µM | UO-31 > 100 µM | XF498 35.6 µM
51.8 µM: HCT-15

CN(C)CCNC(=O)c1cccc2cc3c(Cl)cccc3nc12
inactive: A498 1.35 µM | CAKI-1 3.63 µM | DLD-1 1.17 µM | DMS-114 1.35 µM | EKVX 2.35 µM | HCC 2998 1.27 µM | HOP-18 4.51 µM | HOP-92 2.07 µM | IGROV-1 1.2 µM | KM-20L2 1.54 µM | KM12 1.31 µM | LXFL 529 1.67 µM | M14 2.12 µM | M19-MEL 1.33 µM | NCI-H226 1.15 µM | NCI-H23 1.38 µM | NCI-H522 2.86 µM | OVCAR-3 1.82 µM | OVCAR-4 2.02 µM | OVCAR-5 2.61 µM | RPMI-8226 1.64 µM | RXF 393 1.7 µM | RXF 631 2.55 µM | SK-MEL-28 2.15 µM | SK-MEL-2 1.75 µM | SK-MEL-5 1.71 µM | SK-OV-3 3.53 µM | SNB-19 1.71 µM | SNB-75 1.97 µM | SNB-78 2.11 µM | TK-10 1.95 µM | U-251 1.24 µM | UACC-257 1.75 µM | UACC-62 1.69 µM | UO-31 2.55 µM
1.19 µM: HCT-15
active: 786-0 1.12 µM | A549 0.556 µM | ACHN 0.413 µM | COLO 205 1.01 µM | DMS-273 0.562 µM | HCT-116 0.601 µM | HOP-62 0.718 µM | HT-29 0.889 µM | K562 0.946 µM | LOX IMVI 0.583 µM | MOLT-4 0.22 µM | Malme-3M 0.865 µM | OVCAR-8 1.1 µM | SF-539 0.873 µM | SN12C 1.07 µM | SR 0.308 µM | SW-620 0.641 µM | XF498 0.394 µM

Cc1ccc(/N=N/c2c(C)nn(-c3ccccc3)c2C)c(Br)c1
inactive: 786-0 > 100 µM | A498 > 100 µM | A549 > 100 µM | ACHN > 100 µM | CAKI-1 > 100 µM | CCRF-CEM 27 µM | COLO 205 > 100 µM | DLD-1 65.6 µM | DMS-114 > 100 µM | DMS-273 51.3 µM | EKVX > 100 µM | HCC 2998 > 100 µM | HCT-116 41.3 µM | HL-60 6.84 µM | HOP-18 > 100 µM | HOP-62 > 100 µM | HOP-92 > 100 µM | HT-29 76.9 µM | IGROV-1 > 100 µM | K562 27.3 µM | KM-20L2 > 100 µM | KM12 95.5 µM | LOX IMVI 53 µM | LXFL 529 95.3 µM | M14 > 100 µM | M19-MEL > 100 µM | MOLT-4 64 µM | Malme-3M > 100 µM | NCI-H226 > 100 µM | NCI-H23 > 100 µM | NCI-H460 62.8 µM | OVCAR-3 > 100 µM | OVCAR-4 > 100 µM | OVCAR-5 > 100 µM | OVCAR-8 > 100 µM | RPMI-8226 36 µM | RXF 393 54 µM | RXF 631 > 100 µM | SF-268 > 100 µM | SF-295 > 100 µM | SF-539 > 100 µM | SK-MEL-28 > 100 µM | SK-MEL-2 > 100 µM | SK-MEL-5 66.1 µM | SK-OV-3 > 100 µM | SN12C > 100 µM | SNB-19 > 100 µM | SNB-75 > 100 µM | SNB-78 > 100 µM | SW-620 70.8 µM | TK-10 > 100 µM | U-251 60.8 µM | UACC-257 89.7 µM | UACC-62 89.9 µM | XF498 > 100 µM
36 µM: HCT-15

From ChEMBL document CHEMBL1201862, “PubChem BioAssay data set” (2004)
